Assay results reported in article PMC4032254, “Targeting of the MYCN Protein with Small Molecule c-MYC Inhibitors” (PLoS ONE, 2014).

Key:
[1] = test system: xenograft models of prostate cancer; settings: cited from earlier work
TH-MYCN transgenic mice = test system: TH-MYCN transgenic mice; set-up: method as in PMID 23733953; settings: cited from earlier work
NB xenografts = test system: NB xenografts; set-up: method as in PMID 23733953; settings: cited from earlier work
SK-N-BE(2) cells [2] = experiment: Neuronal differentiation of NB cells (neurite outgrowth); format: cell-based, human; settings: sub-lethal concentrations, 14-15 days
Method: SK-N-BE(2) cells were grown for 15 days in 6 well-plates and treated twice per week with DMSO or compound, with and without NGF. Differentiation was assessed based on number and length of neuronal outgrowths using a phase contrast microscope (Axiovert 40 CFL, Zeiss) and the Axiovision Rel. 4.8 software.
Phase contrast micrographs show representative pictures from one out of 3 to 5 independent experiments.

SK-N-BE(2) cells [3] = experiment: Oil Red O staining of lipids; format: cell-based, human; settings: sub-lethal concentrations, 3 days
Method: To explore the effect on lipid accumulation of the small molecules studied here cells were treated with sub-lethal concentrations of the compounds and stained with Oil Red O in order to detect lipids.
SK-N-BE(2) cells grown on cover slips were fixed in 4% PFA, washed in PBS and then in 60% isopropanol before staining with filtered Oil Red O solution (2 mg/ml) in 60% isopropanol. Cells were washed briefly in distilled water and mounted onto glass slides using water-soluble mounting medium (Aqua Pertex, Histolab products AB). For visualization, bright field images were captured at 40X magnification using an Axiovert 40 CFL inverted fluorescence microscope (Zeiss) and Axiovision Rel. 4.8 software.

Kelly cells = experiment: Apoptosis, propidium iodide sub G1 DNA content, Kelly; format: cell-based, human
Method: Figure 5 Growth inhibition and apoptosis induction in MYCN amplified cells. (A) The amount of viable of cells was determined using crystal violet assay following 48 hours treatment of Kelly cells with increasing concentration of the indicated compound. Data are shown as percent of control (DMSO) treated cells and represent the mean of three independent experiments. Error bars indicate standard deviation. (B) Pearson's correlation between the IC50 values in the growth inhibition assay (A, Table 2) and the KD values for binding to MYCN (Table 1). (C–D) Quantification of apoptosis by propidium iodide staining for sub G1 DNA content of SK-N-BE(2) (C) and Kelly (D) cells. Data represent the means of at least three independent experiments. Error bars indicate standard deviation. We next investigated the level of apoptosis induction in response to treatment with the molecules using two different MNA NB cell lines (Figure 5C, D). […] To verify the MYCN specificity in apoptosis induction, we next used Tet21N NB cells with doxycycline regulated MYCN expression. […] Small molecule-induced apoptosis was scored by quantifying the sub-G0/G1 fraction of the cell cycle. […] Cells were stained with propidium iodide solution (5 µg/ml propidium iodide and 25 µg/ml RNase A in PBS) for 30 min at 37°C and analyzed in a FACScan flow cytometer (Becton Dickinson). […]

Row | Compound | antitumor activity in prostate cancer xenografts [1] | survival of TH-MYCN transgenic mice (TH-MYCN transgenic mice) | anti-tumor effects in NB xenografts (NB xenografts) | morphological neuronal differentiation (SK-N-BE(2) cells [2]) | lipid droplet accumulation (SK-N-BE(2) cells [3]) | apoptosis (cell death) induction relative to 10058-F4 (Kelly cells)
1 | CCc1ccc(C=C2SC(=S)NC2=O)cc1 [Compound 10058-F4, [Z,E]-5-[4-ethylbenzylidine]-2-thioxothiazolidin-4-one] | no significant antitumor activity | increased the survival | showed anti-tumor effects |  |  | 
2 | O=[N+]([O-])c1ccc(Nc2ccccc2-c2ccccc2)c2nonc12 [Compound 10074-G5] |  |  |  | evident neurite outgrowth | smaller but more numerous lipid droplets | more potent than 10058-F4 in inducing cell death
